The source of these data is patent US8637523B2, “Compounds for the reduction of beta-amyloid production” (Bristol-Myers Squibb Company, priority 2010, dated 2014).

For this experiment, the system named is Aβ42. Description: Cellular assay for inhibition of Aβ1-42 production (H4 APP751 SWE clone 8.20). Particulars: H4 APP751 SWE clone 8.20 cells, 19 h incubation. It is filed as cell-based. The method, boiled down: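 Secreted peptide was quantified with a two-antibody homogeneous format combining Wallac-labelled 565, which recognises the Aβ42 end, and APC-labelled 26D6 at 0.8 and 75 ng/well respectively. Antibodies were diluted in 40 mM Tris-HCl, pH 7.4, 0.2% BSA and left overnight at 4 °C after a 19 h compound incubation.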

The mark [1] stands for this setting: read-out: Activity Rating (Aβ42 cellular IC50), class symbol.
The mark [2] stands for this setting: 19 h, read-out: Activity Rating (Aβ42 cellular IC50), class symbol.
Where [3] appears, read: unit inferred, read-out: Activity Rating (Aβ42 cellular IC50), numeric value.
Setting [4] is: 19 h, unit inferred, read-out: Activity Rating (Aβ42 cellular IC50), numeric value.

Read-outs that look alike come from different tables or passages of the source.

In general, IC50 refers to the concentration at which inhibition is half-maximal. `Cc1ncn(-c2ccc3cc2OCCCCN(C)c2nc(nc4c2CCC4c2ccccc2)N3)n1` (stereo not shown) [Example 50A, 14-methyl-7-(3-methyl-1H-1,2,4-triazol-1-yl)-18-phenyl-10,11,12,13,14,16,17,18-octahydro-15,2-(azeno)-8,4-(metheno)cyclopenta[h][1,6,10,12]oxatriazacycloheptadecine]: the IC50 under setting [1] is under 10 nM. For the molecule `Cc1ncn(-c2ccc3cc2OCCCCN(C)c2nc(nc4c2CCC4c2ccccc2)N3)n1` (stereo not shown) [Example 50B, 14-methyl-7-(3-methyl-1H-1,2,4-triazol-1-yl)-18-phenyl-10,11,12,13,14,16,17,18-octahydro-15,2-(azeno)-8,4-(metheno)cyclopenta[h][1,6,10,12]oxatriazacycloheptadecine], under setting [2], the IC50 was in the range of 10 to 100 nM. In the case of `Cc1ncn(-c2ccc3cc2OC/C=C/CNc2nc(nc4c2CCC4c2ccc(F)cc2F)N3)n1` (stereo not shown) [Example 52A, (11E)-18-(2,4-difluorophenyl)-7-(3-methyl-1H-1,2,4-triazol-1-yl)-10,13,14,16,17,18-hexahydro-15,2-(azeno)-8,4-(metheno)cyclopenta[h][1,6,10,12]oxatriazacycloheptadecine], the IC50 under setting [3] came to 11 nM. Take `Cc1ncn(-c2ccc3cc2OC/C=C/CNc2nc(nc4c2CCC4c2ccc(F)cc2F)N3)n1` (stereo not shown) [Example 52B, (11E)-18-(2,4-difluorophenyl)-7-(3-methyl-1H-1,2,4-triazol-1-yl)-10,13,14,16,17,18-hexahydro-15,2-(azeno)-8,4-(metheno)cyclopenta[h][1,6,10,12]oxatriazacycloheptadecine]: under setting [1], the IC50 lay within 10 to 100 nM. On the same count and under the same terms, under `Cc1ncnn1-c1ccc2cc1OCC=CCNc1nc(nc3c1CCC3c1ccc(F)cc1F)N2` (stereo not shown) [Example 54A, (11E)-18-(2,4-difluorophenyl)-7-(5-methyl-1H-1,2,4-triazol-1-yl)-10,13,14,16,17,18-hexahydro-15,2-(azeno)-8,4-(metheno)cyclopenta[h][1,6,10,12]oxatriazacycloheptadecine] stands under 10 nM. `Cc1ncnn1-c1ccc2cc1OCC=CCNc1nc(nc3c1CCC3c1ccc(F)cc1F)N2` (stereo not shown) [Example 54B, (11E)-18-(2,4-difluorophenyl)-7-(5-methyl-1H-1,2,4-triazol-1-yl)-10,13,14,16,17,18-hexahydro-15,2-(azeno)-8,4-(metheno)cyclopenta[h][1,6,10,12]oxatriazacycloheptadecine]: the IC50 under setting [1] was 10 to 100 nM. Take `Cc1ncn(-c2ccc3cc2OCCN(C)CCNc2nc(nc4c2CCC4c2ccc(F)cc2)N3)n1` (stereo not shown) [Example 56B, 19-(4-fluorophenyl)-12-methyl-7-(3-methyl-1H-1,2,4-triazol-1-yl)-11,12,13,14,15,17,18,19-octahydro-10H-16,2-(azeno)-8,4-(metheno)cyclopenta[i][1,4,7,11,13]oxatetraazacyclooctadecine]: under setting [2], the IC50 lay in the range of 10 to 100 nM. Turning to `Cc1ncn(-c2ccc3cc2OC/C=C\CN(C)c2nc(nc4c2CCC4c2ccc(F)cc2F)N3)n1` (stereo not shown) [Example 57A, (11Z)-18-(2,4-difluorophenyl)-14-methyl-7-(3-methyl-1H-1,2,4-triazol-1-yl)-10,13,14,16,17,18-hexahydro-15,2-(azeno)-8,4-(metheno)cyclopenta[h][1,6,10,12]oxatriazacycloheptadecine], the IC50 under setting [4] is 5.5 nM.

Turning to `Cc1ncn(-c2ccc3cc2OC/C=C\CN(C)c2nc(nc4c2CCC4c2ccc(F)cc2F)N3)n1` (stereo not shown) [Example 57B, (11Z)-18-(2,4-difluorophenyl)-14-methyl-7-(3-methyl-1H-1,2,4-triazol-1-yl)-10,13,14,16,17,18-hexahydro-15,2-(azeno)-8,4-(metheno)cyclopenta[h][1,6,10,12]oxatriazacycloheptadecine], under setting [2], the IC50 fell in the range of 10 to 100 nM. As to `Cc1ncn(-c2ccc3cc2OCC=CCCc2nc(nc4c2CCC4c2ccccc2)N3)n1` (stereo not shown) [Example 59A, (11E)-7-(3-methyl-1H-1,2,4-triazol-1-yl)-18-phenyl-10,13,14,16,17,18-hexahydro-15,2-(azeno)-8,4-(metheno)cyclopenta[h][1,10,12]oxadiazacycloheptadecine], the IC50 under setting [1] was under 10 nM.

For the molecule `Cc1ncn(-c2ccc3cc2OCC=CCCc2nc(nc4c2CCC4c2ccccc2)N3)n1` (stereo not shown) [Example 59B, (11E)-7-(3-methyl-1H-1,2,4-triazol-1-yl)-18-phenyl-10,13,14,16,17,18-hexahydro-15,2-(azeno)-8,4-(metheno)cyclopenta[h][1,10,12]oxadiazacycloheptadecine], under setting [3], the half-maximal inhibitory concentration (IC50) turned out to be 32 nM. Consider `Cc1ncn(-c2ccc3cc2OCCCN(C)c2nc(nc4c2CCC4c2ccccc2)N3)n1` (stereo not shown) [Example 60B, 13-methyl-7-(3-methyl-1H-1,2,4-triazol-1-yl)-17-phenyl-11,12,13,15,16,17-hexahydro-10H-14,2-(azeno)-8,4-(metheno)cyclopenta[g][1,5,9,11]oxatriazacyclohexadecine], for which the IC50 under setting [2] fell in the range of 10 to 100 nM. Take `Cc1ncn(-c2ccc3cc2OCCCCN(C)c2nc(nc4c2CCC4c2ccc(F)cc2F)N3)n1` (stereo not shown) [Example 61A, 18-(2,4-difluorophenyl)-14-methyl-7-(3-methyl-1H-1,2,4-triazol-1-yl)-10,11,12,13,14,16,17,18-octahydro-15,2-(azeno)-8,4-(metheno)cyclopenta[h][1,6,10,12]oxatriazacycloheptadecine]: the IC50 under setting [4] was found to be 4.1 nM.

In the case of `Cc1ncn(-c2ccc3cc2OCCCCN(C)c2nc(nc4c2CCC4c2ccc(F)cc2F)N3)n1` (stereo not shown) [Example 61B, 18-(2,4-difluorophenyl)-14-methyl-7-(3-methyl-1H-1,2,4-triazol-1-yl)-10,11,12,13,14,16,17,18-octahydro-15,2-(azeno)-8,4-(metheno)cyclopenta[h][1,6,10,12]oxatriazacycloheptadecine], the IC50 under setting [2] lay within 10 to 100 nM. On the same count and under the same terms, for `Cc1ncn(-c2ccc3cc2OCCCCCc2nc(nc4c2CCC4c2ccccc2)N3)n1` (stereo not shown) [Example 62A, 7-(3-methyl-1H-1,2,4-triazol-1-yl)-18-phenyl-10,11,12,13,14,16,17,18-octahydro-15,2-(azeno)-8,4-(metheno)cyclopenta[h][1,10,12]oxadiazacycloheptadecine] the value was under 10 nM. Regarding `Cc1ncn(-c2ccc3cc2OCCCCCc2nc(nc4c2CCC4c2ccccc2)N3)n1` (stereo not shown) [Example 62B, 7-(3-methyl-1H-1,2,4-triazol-1-yl)-18-phenyl-10,11,12,13,14,16,17,18-octahydro-15,2-(azeno)-8,4-(metheno)cyclopenta[h][1,10,12]oxadiazacycloheptadecine], the IC50 under setting [4] turned out to be 22 nM. Regarding `Cc1ncn(-c2ccc3cc2OCCCNc2nc(nc4c2CCC4c2ccc(F)cc2F)N3)n1` (stereo not shown) [Example 63A, 17-(2,4-difluorophenyl)-7-(3-methyl-1H-1,2,4-triazol-1-yl)-11,12,13,15,16,17-hexahydro-10H-14,2-(azeno)-8,4-(metheno)cyclopenta[g][1,5,9,11]oxatriazacyclohexadecine], the IC50 under setting [2] is under 10 nM.

Take `Cc1ncn(-c2ccc3cc2OCCCNc2nc(nc4c2CCC4c2ccc(F)cc2F)N3)n1` (stereo not shown) [Example 63B, 17-(2,4-difluorophenyl)-7-(3-methyl-1H-1,2,4-triazol-1-yl)-11,12,13,15,16,17-hexahydro-10H-14,2-(azeno)-8,4-(metheno)cyclopenta[g][1,5,9,11]oxatriazacyclohexadecine]: the IC50 under setting [4] amounted to 25 nM. On the same count and under the same terms, under `Cc1ncn(-c2ccc3cc2OCCCCNc2nc(nc4c2CCC4c2ccc(F)cc2F)N3)n1` (stereo not shown) [Example 64A, 18-(2,4-difluorophenyl)-7-(3-methyl-1H-1,2,4-triazol-1-yl)-10,11,12,13,14,16,17,18-octahydro-15,2-(azeno)-8,4-(metheno)cyclopenta[h][1,6,10,12]oxatriazacycloheptadecine] stands 5.3 nM. With `Cc1ncn(-c2ccc3cc2OCCCCNc2nc(nc4c2CCC4c2ccc(F)cc2F)N3)n1` (stereo not shown) [Example 64B, 18-(2,4-difluorophenyl)-7-(3-methyl-1H-1,2,4-triazol-1-yl)-10,11,12,13,14,16,17,18-octahydro-15,2-(azeno)-8,4-(metheno)cyclopenta[h][1,6,10,12]oxatriazacycloheptadecine], under setting [2], the IC50 lay within 10 to 100 nM. Same read-out and setting: for `Cc1ncn(-c2ccc3cc2OCCCN(C)c2nc(nc4c2CCC4c2ccc(F)cc2)N3)n1` (stereo not shown) [Example 65B, 13-methyl-7-(3-methyl-1H-1,2,4-triazol-1-yl)-17-(4-fluorophenyl)-11,12,13,15,16,17-hexahydro-10H-14,2-(azeno)-8,4-(metheno)cyclopenta[g][1,5,9,11]oxatriazacyclohexadecine] the value was 10 to 100 nM. With `CC1(c2ccc(F)cc2)CCc2c3nc(nc21)Nc1ccc(C#N)c(c1)OC/C=C\CN3` (stereo not shown) [Example 68, (11E)-7-cyano-18-(4-fluorophenyl)-18-methyl-10,13,14,16,17,18-hexahydro-15,2-(azeno)-8,4-(metheno)cyclopenta[h][1,6,10,12]oxatriazacycloheptadecine], the IC50 under setting [3] worked out at 160 nM. Turning to `CC1(c2ccc(F)cc2)CCc2c3nc(nc21)Nc1ccc(C#N)c(c1)OC/C=C\CN3` (stereo not shown) [Example 69, (11Z)-7-cyano-18-(4-fluorophenyl)-18-methyl-10,13,14,16,17,18-hexahydro-15,2-(azeno)-8,4-(metheno)cyclopenta[h][1,6,10,12]oxatriazacycloheptadecine], under setting [3], the IC50 was found to be 120 nM. In the case of “(11E)-7-(3-methyl-1H-1,2,4-triazol-1-yl)-18-phenyl-10,13,14,16,17,18-hexahydro-15,2-(azeno)-8,4-(metheno)cyclopenta[h][1,6,10,12]oxatriazacycloheptadecine [Example 40A]”, under setting [1], the half-maximal inhibitory concentration (IC50) was under 10 nM. In the case of “(11E)-7-(3-methyl-1H-1,2,4-triazol-1-yl)-18-phenyl-10,13,14,16,17,18-hexahydro-15,2-(azeno)-8,4-(metheno)cyclopenta[h][1,6,10,12]oxatriazacycloheptadecine [Example 40B]”, under setting [3], the IC50 worked out at 25 nM.
